As usually defined, the pIC50 is the IC50 on a negative log10 scale, so that one unit is a factor of ten. High values mean a low IC50, low ones a high IC50.

Test [1] has as its system effect produced in the guinea pig by a histamine aerosol. The test is described as follows: Test of A. K. Armitage, histamine aerosol at 4%. It is filed as in vivo. As to conditions: oral administration of 5 mg/kg. How it is done:
When submitted to the test of A. K. Armitage, Brit J. Pharmacol. 17, 196, (1961), the compounds according to the invention administered by oral route at doses between 0.5 and 10 mg/kg, depending on the compounds, inhibit by 50% the effect produced in the guinea pig by a histamine aerosol at 4%. For certain of these compounds, the effect is still very strong 48 hours after oral administration.
By way of non-restricting example, the oral administration of 5 mg/kg of the compound of example 1, inhibits for more than 48 hours the broncho-spasm caused be a histamine aerosol at 4%. In addition, a reduction of the anaphylactic cutaneous reaction is observed in the rat after a single administration of 20 mg/kg per os of this compound.

For test [2], the target named is T1, A 1 receptors (Homo sapiens, UniProt P30542).
T1 sequence (P30542 1-326): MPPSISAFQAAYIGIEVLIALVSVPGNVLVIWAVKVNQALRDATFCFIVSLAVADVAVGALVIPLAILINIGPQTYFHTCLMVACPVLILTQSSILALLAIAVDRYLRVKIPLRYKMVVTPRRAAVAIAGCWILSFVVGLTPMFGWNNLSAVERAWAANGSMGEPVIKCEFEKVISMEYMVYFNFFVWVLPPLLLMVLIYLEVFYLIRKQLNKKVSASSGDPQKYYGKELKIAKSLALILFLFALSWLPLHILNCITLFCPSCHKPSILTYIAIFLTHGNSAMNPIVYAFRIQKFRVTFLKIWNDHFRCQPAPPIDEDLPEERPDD
The test is described as follows: Purinergic A 1 receptors. The class given is binding.

pIC50: −log10 of the molar value. Where only a bound is given, the exact number is not on record here.

For `CC(C)Cn1c(=O)n(C)c(=O)c2[nH]c(CCN3CCN(C(c4ccccc4)c4ccccc4)CC3)nc21` [Example 1, 1-methyl-3-isobutyl-8-[2-(4-diphenylmethyl-piperazinyl)ethyl]xanthine], in test [1], the “duration of inhibition of the broncho-spasm caused by a histamine aerosol at 4%” value is given as “more than 48 hours”. In test [2], the pIC50 was less than 4.00.

The values above are taken from US4548820A, “Xanthine compounds” (Adir, priority 1982, dated 1985).
